Reference: patent US20040209799A1, “JAK/STAT pathway inhibitors and the uses thereof” (priority 2000, published 2004)
Values belong to the compound of their own block, whether it stands above or below them.

Assays:
chondrocytes = conditions: in vitro; cited from earlier work
JAK3 mRNA = experiment: northern blot analysis of JAK3 expression in human articular chondrocytes; assay type: cell-based; conditions: 2 ng/ml for 24 hours, normal adult human articular chondrocytes in monolayer
Method: Frozen chondrocyte cell strain HC30-0198 (normal human articular chondrocytes prepared as described in Example 1) was thawed, cultured in monolayer (second passage), and cultured to 5 days post confluence. Test cultures were rinsed in phosphate buffered saline (PBS), followed by addition of either; 1) recombinant human interleukin-1β (rhIL-1β) (R&D Systems, Minneapolis, Minn.) at 2 ng/ml for 24 hours in serum-free DMEM containing 1% antibiotic solution, or 2) serum-free DMEM containing 1% antibiotic solution only (control).
RNA on the Northern blot was fixed to the membrane by using a Stratalinker® 1800 UV Crosslinker (Stratagene, La Jolla, Calif.).
A 109-base pair human cDNA for JAK3 was generated by RT-PCR (see Example 2 above).
Prehybridization and hybridization of the Northern blot was performed at 42° C. using a 1:1 dilution of 2× Prehybridization/Hybridization Solution (GIBCO/BRL, Gaithersburg, Md.) and formamide. After 15 hours of hybridization using the JAK3 DNA probe, the blot was successively washed two times in 2×SSC/0.1% SDS (15 minutes/wash at room temperature), and two times in 0.5×SSC/0.1% SDS (30 minutes/wash at 65° C.). The blot was allowed to air dry, and the radioactive signal was visualized using a Fujifilm BAS-1500 phosphorimager (Fuji Medical Systems, USA, Stamford, C1).

[1] = molecular target: IGFR (Insulin-like growth factor receptor) protein tyrosine kinase (Homo sapiens, UniProt P08069); experiment: poly (Glu, Tyr) 4:1 ELISA, IGFR; assay type: biochemical; conditions: ec-50 values ranging from hundreds of micromolar to no inhibition (data not shown)
Method: (§1) To further examine the inhibition characteristics of DBH (and its variants) to a variety of cellular components, a poly (Glu, Tyr) 4:1 ELISA was performed. Hymenialdisine (H), DBH (as marine sponge extracts: see Chipman and Faulkner, 1997), and three variant forms of synthetic DBH: the free base form of DBH (DBH-2FB), a trifluoroacetic acid salt form of DBH (DBH-2S), and a methanesulfonic acid salt form of DBH (DBH 1) were solubilized in DMSO, and tested for the ability to inhibit; ZAP-70 (ζ-associated polypeptide of 70 kDa) protein tyrosine kinase, BTK (Bruton's agarnrnaglobulinaemia tyrosine kinase), JAK3 (Janus kinase 3) protein tyrosine kinase, LCK (Lymphoid T-cell protein tyrosine kinase), and IGFR (Insulin-like growth factor receptor) protein tyrosine kinase.
(§2) Maxisorb microtiter plates (Nalge Nunc International, Rochester, N.Y.) were coated with 1 mg/ml Poly(Glu,Tyr) 4:1 (Sigma, St. Louis, Mo.) solubilized in phosphate buffered saline (PBS), 0.02% sodium azide. On the day of the assay, microtiter plates were washed 4× with TBS-Tween (25 mM Tris pH 8.0, 150 mM NaCl, 0.05% Tween 20) using a Skatron plate washer (Skatron Instruments, Sterling, Va.). 200 μl of sterile blocking buffer (3% BSA in PBS, 0.02% sodium azide) was added to each well, and the microtiter plates were incubated at 37° C. for 1 hour. The blocking buffer was removed, the plates washed, and various concentrations of inhibitor were added in a 20 μl volume to the wells. 60 μl of the appropriate substrate mix was then added. Substrate mixes were prepared as described in Table 2:
(§3) Following addition of the substrate mix, 20 μl of the test protein tyrosine kinase (in 1× assay buffer) was added. Kinase reactions were incubated 30 min at 37° C., followed by washes in the Skatron plate washer. 100 μl of biotinylated PT-66 anti-phosphotyrosine monoclonal antibody (Sigma, St. Louis, Mo.) (diluted 1:4000 in 0.5% BSA, sterile-filtered TBS) was added to each well, and incubated for an additional 30 minutes at 37° C. […] The samples were then read at 450 nm in a plate reader.

[2] = molecular target: T1, ZAP-70 (ζ-associated polypeptide of 70 kDa) protein tyrosine kinase (Homo sapiens, UniProt P43403); experiment: poly (Glu, Tyr) 4:1 ELISA, ZAP-70; assay type: biochemical; conditions: ec-50 values ranging from hundreds of micromolar to no inhibition (data not shown)
T1 sequence (P43403 1-619): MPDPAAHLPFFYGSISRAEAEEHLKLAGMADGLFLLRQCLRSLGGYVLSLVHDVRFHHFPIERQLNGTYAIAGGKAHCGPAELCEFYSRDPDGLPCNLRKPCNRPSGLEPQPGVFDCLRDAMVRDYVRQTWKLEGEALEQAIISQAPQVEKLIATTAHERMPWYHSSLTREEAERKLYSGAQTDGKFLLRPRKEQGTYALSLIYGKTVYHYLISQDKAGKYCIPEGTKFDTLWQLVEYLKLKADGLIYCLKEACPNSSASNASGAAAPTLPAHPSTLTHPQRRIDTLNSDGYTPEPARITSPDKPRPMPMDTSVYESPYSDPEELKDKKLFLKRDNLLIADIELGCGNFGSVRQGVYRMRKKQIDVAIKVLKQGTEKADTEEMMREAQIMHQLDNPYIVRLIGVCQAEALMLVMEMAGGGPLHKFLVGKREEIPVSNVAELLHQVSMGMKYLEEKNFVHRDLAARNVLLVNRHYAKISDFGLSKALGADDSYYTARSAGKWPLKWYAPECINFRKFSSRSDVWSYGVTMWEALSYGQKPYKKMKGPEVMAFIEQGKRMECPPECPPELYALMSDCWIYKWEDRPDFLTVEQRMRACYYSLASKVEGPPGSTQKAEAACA
Method: as §1, §2, §3

[3] = molecular target: BTK (Bruton's agarnrnaglobulinaemia tyrosine kinase) (Homo sapiens, UniProt Q06187); experiment: poly (Glu, Tyr) 4:1 ELISA, BTK; assay type: biochemical; conditions: ec-50 values ranging from hundreds of micromolar to no inhibition (data not shown)
Method: as §1, §2, §3

[4] = test system: chondrocytes in culture and explants of articular cartilage; conditions: cited from earlier work
[5] = molecular target: T2, JAK3 (Janus kinase 3) protein tyrosine kinase (Homo sapiens, UniProt P52333); experiment: poly (Glu, Tyr) 4:1 ELISA, JAK3; assay type: biochemical; conditions: inhibitors solubilized in DMSO, read-out: ec-50 (effective concentration for 50% inhibition) of JAK3
T2 sequence (P52333 1-1124): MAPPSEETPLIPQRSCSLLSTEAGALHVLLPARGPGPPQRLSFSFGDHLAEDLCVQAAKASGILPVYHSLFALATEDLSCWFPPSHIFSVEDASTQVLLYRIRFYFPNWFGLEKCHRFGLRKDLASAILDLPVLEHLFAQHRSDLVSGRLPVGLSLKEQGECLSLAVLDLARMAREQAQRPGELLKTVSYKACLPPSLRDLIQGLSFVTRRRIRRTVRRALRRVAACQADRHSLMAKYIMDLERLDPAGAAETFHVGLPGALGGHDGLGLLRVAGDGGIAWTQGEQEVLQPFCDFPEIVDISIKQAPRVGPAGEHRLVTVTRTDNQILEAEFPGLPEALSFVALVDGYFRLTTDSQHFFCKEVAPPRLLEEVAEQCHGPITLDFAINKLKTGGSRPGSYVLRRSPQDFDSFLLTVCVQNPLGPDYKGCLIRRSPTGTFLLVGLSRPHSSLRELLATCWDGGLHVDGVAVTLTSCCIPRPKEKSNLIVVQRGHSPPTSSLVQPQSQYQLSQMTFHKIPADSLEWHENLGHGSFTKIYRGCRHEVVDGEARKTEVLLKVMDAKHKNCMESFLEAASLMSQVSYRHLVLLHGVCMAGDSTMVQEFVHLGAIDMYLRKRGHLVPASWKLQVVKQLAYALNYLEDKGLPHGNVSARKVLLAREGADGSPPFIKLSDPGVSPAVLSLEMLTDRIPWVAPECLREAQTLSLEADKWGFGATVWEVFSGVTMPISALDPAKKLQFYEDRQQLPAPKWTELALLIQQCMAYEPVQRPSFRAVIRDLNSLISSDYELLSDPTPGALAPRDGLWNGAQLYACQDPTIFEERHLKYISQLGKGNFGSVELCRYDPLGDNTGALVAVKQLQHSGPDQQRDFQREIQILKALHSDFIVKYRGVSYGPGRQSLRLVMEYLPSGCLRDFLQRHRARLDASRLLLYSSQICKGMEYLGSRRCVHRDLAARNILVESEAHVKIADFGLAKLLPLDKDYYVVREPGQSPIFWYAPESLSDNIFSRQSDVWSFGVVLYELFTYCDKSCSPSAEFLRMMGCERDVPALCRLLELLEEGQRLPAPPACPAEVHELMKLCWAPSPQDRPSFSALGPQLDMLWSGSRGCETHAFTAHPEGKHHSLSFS
Method: as §1, §2, §3

[6] = molecular target: LCK (Lymphoid T-cell protein tyrosine kinase) (Homo sapiens, UniProt P06239); experiment: poly (Glu, Tyr) 4:1 ELISA, LCK; assay type: biochemical; conditions: ec-50 values ranging from hundreds of micromolar to no inhibition (data not shown)
Method: as §1, §2, §3

JAK3 = molecular target: T3, JAK3 (Homo sapiens, UniProt P52333); conditions: cited from earlier work
T3 sequence (P52333 1-1124): T2 sequence (P52333 1-1124)

BTK (Bruton's agarnrnaglobulinaemia tyrosine kinase), sequence (Q06187 whole entry, species assumed): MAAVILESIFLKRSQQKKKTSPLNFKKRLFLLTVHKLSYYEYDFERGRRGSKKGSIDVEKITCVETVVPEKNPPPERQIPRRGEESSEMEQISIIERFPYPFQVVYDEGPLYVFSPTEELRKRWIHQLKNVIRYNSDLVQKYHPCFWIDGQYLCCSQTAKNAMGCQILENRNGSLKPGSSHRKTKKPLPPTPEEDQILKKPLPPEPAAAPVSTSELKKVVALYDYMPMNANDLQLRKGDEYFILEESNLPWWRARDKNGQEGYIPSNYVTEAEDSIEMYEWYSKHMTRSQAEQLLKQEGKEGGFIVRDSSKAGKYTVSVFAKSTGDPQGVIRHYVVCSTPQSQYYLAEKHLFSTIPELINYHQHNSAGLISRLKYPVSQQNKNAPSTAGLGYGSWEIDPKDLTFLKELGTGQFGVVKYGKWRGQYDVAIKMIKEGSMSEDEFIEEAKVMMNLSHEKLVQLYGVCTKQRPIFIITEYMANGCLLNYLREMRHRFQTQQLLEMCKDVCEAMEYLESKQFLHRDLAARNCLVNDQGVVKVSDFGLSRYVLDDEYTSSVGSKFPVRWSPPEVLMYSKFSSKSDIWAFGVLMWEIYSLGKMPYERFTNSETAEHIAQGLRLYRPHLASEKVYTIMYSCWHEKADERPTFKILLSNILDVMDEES
LCK (Lymphoid T-cell protein tyrosine kinase), sequence (P06239 whole entry, species assumed): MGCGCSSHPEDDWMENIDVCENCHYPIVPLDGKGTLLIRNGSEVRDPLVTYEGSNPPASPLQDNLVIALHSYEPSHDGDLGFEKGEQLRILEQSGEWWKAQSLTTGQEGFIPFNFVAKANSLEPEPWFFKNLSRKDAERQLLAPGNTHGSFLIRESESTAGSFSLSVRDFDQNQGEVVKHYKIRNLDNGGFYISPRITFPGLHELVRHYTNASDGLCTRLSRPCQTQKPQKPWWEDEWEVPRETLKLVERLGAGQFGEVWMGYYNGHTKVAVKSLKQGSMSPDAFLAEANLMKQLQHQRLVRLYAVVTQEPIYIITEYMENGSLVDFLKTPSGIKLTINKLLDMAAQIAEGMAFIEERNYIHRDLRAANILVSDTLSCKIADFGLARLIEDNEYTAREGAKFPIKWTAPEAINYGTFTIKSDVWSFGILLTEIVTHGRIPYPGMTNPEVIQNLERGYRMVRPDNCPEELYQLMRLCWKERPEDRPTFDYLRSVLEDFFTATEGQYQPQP
IGFR (Insulin-like growth factor receptor) protein tyrosine kinase, sequence (P08069 31-1367): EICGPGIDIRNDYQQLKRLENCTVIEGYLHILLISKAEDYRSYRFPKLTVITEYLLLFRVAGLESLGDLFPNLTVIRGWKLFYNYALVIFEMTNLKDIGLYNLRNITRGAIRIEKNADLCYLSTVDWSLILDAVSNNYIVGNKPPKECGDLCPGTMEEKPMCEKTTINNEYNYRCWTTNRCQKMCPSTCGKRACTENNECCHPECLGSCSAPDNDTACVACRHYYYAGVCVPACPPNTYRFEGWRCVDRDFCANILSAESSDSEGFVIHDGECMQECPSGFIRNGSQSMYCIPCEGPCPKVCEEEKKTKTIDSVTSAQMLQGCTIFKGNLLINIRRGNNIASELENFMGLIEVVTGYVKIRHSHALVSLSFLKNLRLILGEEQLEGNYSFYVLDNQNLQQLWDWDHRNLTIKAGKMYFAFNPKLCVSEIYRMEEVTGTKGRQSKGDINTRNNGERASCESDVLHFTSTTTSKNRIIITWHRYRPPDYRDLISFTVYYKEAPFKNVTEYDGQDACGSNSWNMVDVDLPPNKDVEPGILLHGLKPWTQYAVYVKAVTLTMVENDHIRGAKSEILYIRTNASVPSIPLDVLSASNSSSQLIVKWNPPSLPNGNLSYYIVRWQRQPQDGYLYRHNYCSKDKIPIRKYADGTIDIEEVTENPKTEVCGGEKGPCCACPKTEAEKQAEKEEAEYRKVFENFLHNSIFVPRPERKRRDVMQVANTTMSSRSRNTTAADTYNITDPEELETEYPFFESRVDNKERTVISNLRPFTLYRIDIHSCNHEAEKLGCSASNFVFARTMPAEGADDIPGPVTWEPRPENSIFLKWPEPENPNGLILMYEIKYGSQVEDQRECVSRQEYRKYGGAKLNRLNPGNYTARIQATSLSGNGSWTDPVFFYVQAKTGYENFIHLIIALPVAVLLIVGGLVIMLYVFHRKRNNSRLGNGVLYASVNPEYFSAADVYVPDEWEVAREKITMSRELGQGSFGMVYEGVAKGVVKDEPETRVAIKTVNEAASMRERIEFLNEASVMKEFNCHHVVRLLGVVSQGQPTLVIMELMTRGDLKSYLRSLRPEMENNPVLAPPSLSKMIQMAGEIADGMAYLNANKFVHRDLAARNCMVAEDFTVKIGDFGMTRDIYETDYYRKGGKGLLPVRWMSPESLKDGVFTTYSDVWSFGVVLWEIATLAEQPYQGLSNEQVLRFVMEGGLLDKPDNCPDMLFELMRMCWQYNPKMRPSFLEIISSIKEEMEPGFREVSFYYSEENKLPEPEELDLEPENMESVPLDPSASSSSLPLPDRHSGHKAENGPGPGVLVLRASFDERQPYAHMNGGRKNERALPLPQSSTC

Compound: CO[C@H]1[C@@H](OC)C[C@H](C)[C@@H](OC)C2=CC(=O)C=C(NC(=O)/C(C)=C/C=C\[C@H](OC)[C@@H](OC(N)=O)/C(C)=C/[C@@H]1C)C2=O [herbimycin A]
- effect on cartilage degradation by chondrocytes (chondrocytes): reduce or prevent

Compound: N#CC(C#N)=Cc1cc(O)c(O)c(O)c1 [tyrphostin AG 82]
- effect on cartilage degradation by chondrocytes (chondrocytes): reduce or prevent

Compound: O=c1c(-c2ccc(O)cc2)coc2cc(O)cc(O)c12 [genistein]
- effect on cartilage degradation by chondrocytes (chondrocytes): reduce or prevent

Compound: rhIL-1β: recombinant human interleukin-1β (R&D Systems)
- effect on the level of JAK3 mRNA (JAK3 mRNA): neither increases nor decreases

Compound: N#C/C(=C\c1ccc(O)c(O)c1)C(=O)NCCCCc1ccccc1 [tyrphostin AG 556]
- effect on cartilage degradation by chondrocytes (chondrocytes): reduce or prevent

- Inhibition of IGFR [1]: weak
- Inhibition of ZAP-70 [2]: weak
- Inhibition of BTK [3]: weak
- EC50 [5]: 2.6 to 10.7 µM
- Inhibition of LCK [6]: weak
Compound: NC1=NC(=O)C(=C2CCNC(=O)c3[nH]c(Br)cc32)N1 [H, 4-(2-amino-4-oxo-2-imidazolin-5-ylidene)-2-bromo-4,5,6,7-tetrahydropyrrolo (2,3-c) azepine-8-one]
- inhibition of IL-1 induced degradation of glycosaminoglycan and extracellular matrix [4]: inhibit

Compound: COc1cc(C(N)=O)c([N+](=O)[O-])cc1OC [4,5-dimethoxy-2-nitrobenzamide]
- inhibition of JAK3 (JAK3): specifically inhibit

Compound: O=C1NC(=O)c2cc(Nc3ccccc3)c(Nc3ccccc3)cc21 [DAPH, 4,5-dianilinophthalimide]
- effect on cartilage degradation by chondrocytes (chondrocytes): reduce or prevent

Compound: COc1cc(C(=O)O)c([N+](=O)[O-])cc1OC [4,5-dimethoxy-2-nitrobenzoic acid]
- inhibition of JAK3 (JAK3): specifically inhibit
